# Experimental data from patent publication US20150209316A1, “AGENT FOR ENHANCING IMMUNITY CONTAINING GLUTATHIONE” (KYOWA HAKKO BIO CO., LTD., priority 2012, published 2015).
# Key:
# [1] = oral administration to a human; cited from earlier work
# lymphocyte [2] = details: oral administration to a human; cited from earlier work
# NK cell = details: oral administration to a human; cited from earlier work
# human K562 cells = details: after 3 months
# Experimental: The design included the recruitment of healthy subjects (28-79 yr. of age, mean=46.6 years) randomized into 3 groups (GSH at 1000 mg/day, GSH at 250 mg/day, and placebo). […] Blood samples were obtained from all subjects at baseline. […] Capsules were formulated, and subjects began supplementation according to the following schedule as follows: • Group A, GSH: 500 mg/capsule and cellulose: 15 mg/capsule, (2 pills daily); • Group B, GSH: 125 mg/capsule and cellulose: 360 mg/capsule, (2 pills daily); • Group C (placebo), cellulose: 470 mg/capsule, (2 pills daily).
# Eligible participants were randomly assigned to either placebo (Group C) or high (Group A) or low (Group B) dose glutathione groups. […]
# (§1) Blood samples were collected from an antecubital vein into 3 tubes containing sodium heparin as an anticoagulant and immediately placed on ice. […] Cell number was assessed after addition of 40 μl trypan blue to 10 μl of cell suspension using a hemocytometer. […]
# NK Cell Cytotoxicity—NK cell cytotoxicity was assessed using human K562 cells, labeled with sodium ^51chromate as target cell. […] Lymphocyte samples from each of the five time points were thawed, washed 3 times, counted to determine cell viability and added in triplicate to the wells at an effector:target cell ratio of 10:1. After incubation for 4 hr. at 37° C., cells were collected and supernatant analyzed for radioactivity by gamma counting. […]
# [3] = tested on: murine-derived splenic lymphocytes; details: in vitro; cited from earlier work
# lymphocytes = details: after 3 months, both GSH groups (250 and 1000 mg/day oral), dose dependent
# Experimental: The design included the recruitment of healthy subjects (28-79 yr. of age, mean=46.6 years) randomized into 3 groups (GSH at 1000 mg/day, GSH at 250 mg/day, and placebo). […] Blood samples were obtained from all subjects at baseline. Subjects began supplementation according to the following schedule: Glutathione capsules were provided by the sponsor, Kyowa Hakko USA. Capsules were formulated, and subjects began supplementation according to the following schedule as follows: • Group A, GSH: 500 mg/capsule and cellulose: 15 mg/capsule, (2 pills daily); • Group B, GSH: 125 mg/capsule and cellulose: 360 mg/capsule, (2 pills daily); • Group C (placebo), cellulose: 470 mg/capsule, (2 pills daily). […]
# as §1
# Lymphocyte Proliferation—Lymphocyte samples from each of the 5 time points (0, 1, 3, 6, and 7 months) were thawed, washed 3 times and counted to determine cell viability. […] Cell proliferation was monitored by 3H-thymidine incorporation. Intracellular radioactivity was measured by liquid scintillation counting and results were expressed as cpm.
# [4] = tested on: murine-derived splenic lymphocytes; details: in vitro; cited from earlier work; remark: listed apart in the source
# lymphocyte [5] = details: by administering 2-ME; cited from earlier work
smiles,measurement,setting,value
CC(=O)N[C@@H](CS)C(=O)O [N-acetylcysteine],glutathione concentration in immune cells,[1],increased
same,PHA stimulated lymphocyte proliferation,lymphocyte [2],increased
same,NK cell cytotoxic activity,NK cell,increased
"N[C@@H](CCC(=O)N[C@@H](CS)C(=O)NCC(=O)O)C(=O)O [GSH, γ-L-Glu-L-Cys-Gly]",mean % lysis values (NK cell cytotoxicity),"human K562 cells; both GSH groups (250 and 1000 mg/day oral), dose dependent, effector:target 10:1",Increases in mean % lysis values were observed
same,significance of increase in % lysis versus baseline,"human K562 cells; high GSH dose arm 1000 mg/day, Ppaired=0.01",only significant in the high GSH dose arm
same,NK cell cytotoxic activity,[3],increased in a GSH concentration dependent fashion
same,"mean proliferative capacity of lymphocytes (3H-thymidine, cpm)",lymphocytes,Increases in mean proliferative capacity were observed
same,Con A induced lymphocyte proliferation activity,[4],increased in a GSH concentration dependent fashion
same,glutathione concentration in lymphocytes compared to placebo group (Group C),"Group A, 1000 mg/day oral, 1 and 6 months, chi-square test",significant difference (p<0.05)
same,maximum increase of lymphocyte total glutathione,"high dose GSH group (1000 mg/day oral), after 6 months",about 30%
same,time course of lymphocyte glutathione levels,"high dose group (1.0 g/day oral), 1, 3, 6 months",levels progressively increasing from 1 to 3 to 6 months of administration
OCCS [2-melcaptoethanol],lymphocyte proliferation,lymphocyte [5],lymphocyte proliferation action
